Among the data in PMC11576293, “New series of 4,6-diaryl pyrimidines: facile synthesis and antiproliferative activity as dual EGFR/VEGFR-2 inhibitors” (Frontiers in Chemistry, 2024) are inhibition values, retold here.

Where only a bound is given, the exact number is not on record here.

The subject of the first assay is NCI-H460. As to the kind of experiment: NCI-60 single-dose screen. The assay is classed as cell-based. Conditions: Homo sapiens, single dose 10 µM, '-' = no inhibition, read-out: % Growth Inhibition. In short, it runs like this: (§1)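 NCI Developmental Therapeutics Program screen across 60 human cancer cell lines from nine tumor types; compounds tested at a single dose of 10 μM.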
On to `CCCSc1nc(-c2ccc(OC)cc2)cc(-c2cccc(OC)c2)n1` [Compound 18, 6-(3-Methoxyphenyl)-4-(4-methoxyphenyl)-2-(propylthio)pyrimidine], for which the inhibition (as a rule, the share of the control response that was lost under treatment) at 10 µM is less than 0%.

The test system of the next assay is NCI-H522. Put plainly: NCI-60 single-dose screen. The format is cell-based. Conditions: Homo sapiens, single dose 10 µM, '-' = no inhibition, read-out: % Growth Inhibition. The procedure, abridged: as §1
In the case of `CCCSc1nc(-c2ccc(OC)cc2)cc(-c2cccc(OC)c2)n1` [Compound 18, 6-(3-Methoxyphenyl)-4-(4-methoxyphenyl)-2-(propylthio)pyrimidine], the inhibition at 10 µM is less than 0%.

For the next assay, the system named is NCI/ADR-RES. Put plainly: NCI-60 single-dose screen. The assay is classed as cell-based. Conditions: Homo sapiens, single dose 10 µM, '-' = no inhibition, read-out: % Growth Inhibition. In short, it runs like this:
as §1
With `CCCSc1nc(-c2ccc(OC)cc2)cc(-c2cccc(OC)c2)n1` [Compound 18, 6-(3-Methoxyphenyl)-4-(4-methoxyphenyl)-2-(propylthio)pyrimidine], the inhibition at 10 µM is less than 0%.

The next assay relates to OVCAR-4. As to the kind of experiment: NCI-60 single-dose screen. The assay is classed as cell-based. The settings on record: Homo sapiens, single dose 10 µM, '-' = no inhibition, read-out: % Growth Inhibition. The procedure, abridged: as §1
As for `CCCSc1nc(-c2ccc(OC)cc2)cc(-c2cccc(OC)c2)n1` [Compound 18, 6-(3-Methoxyphenyl)-4-(4-methoxyphenyl)-2-(propylthio)pyrimidine], the inhibition at 10 µM worked out at 3.94%.

For a further assay, the system named is OVCAR-5. Put plainly: NCI-60 single-dose screen. Conditions: Homo sapiens, single dose 10 µM, '-' = no inhibition, read-out: % Growth Inhibition. The format is cell-based. In short, it runs like this: as §1
For `CCCSc1nc(-c2ccc(OC)cc2)cc(-c2cccc(OC)c2)n1` [Compound 18, 6-(3-Methoxyphenyl)-4-(4-methoxyphenyl)-2-(propylthio)pyrimidine], the inhibition at 10 µM was less than 0%.

Another assay relates to OVCAR-8. As to the kind of experiment: NCI-60 single-dose screen. The format is cell-based. The settings on record: Homo sapiens, single dose 10 µM, '-' = no inhibition, read-out: % Growth Inhibition. The procedure, abridged: as §1
For `CCCSc1nc(-c2ccc(OC)cc2)cc(-c2cccc(OC)c2)n1` [Compound 18, 6-(3-Methoxyphenyl)-4-(4-methoxyphenyl)-2-(propylthio)pyrimidine], the inhibition at 10 µM was less than 0%.

The next assay concerns PC-3. Put plainly: NCI-60 single-dose screen. The assay is classed as cell-based. Conditions: Homo sapiens, single dose 10 µM, '-' = no inhibition, read-out: % Growth Inhibition. The procedure, abridged: as §1
With `CCCSc1nc(-c2ccc(OC)cc2)cc(-c2cccc(OC)c2)n1` [Compound 18, 6-(3-Methoxyphenyl)-4-(4-methoxyphenyl)-2-(propylthio)pyrimidine], the inhibition at 10 µM was less than 0%.

In the next assay the test system is RPMI-8226. As to the kind of experiment: NCI-60 single-dose screen. The settings on record: Homo sapiens, single dose 10 µM, '-' = no inhibition, read-out: % Growth Inhibition. The assay is classed as cell-based. In short, it runs like this:
as §1
As to `CCCSc1nc(-c2ccc(OC)cc2)cc(-c2cccc(OC)c2)n1` [Compound 18, 6-(3-Methoxyphenyl)-4-(4-methoxyphenyl)-2-(propylthio)pyrimidine], the inhibition at 10 µM is less than 0%.

A further assay deals with RXF 393. Put plainly: NCI-60 single-dose screen. The assay is classed as cell-based. The settings on record: Homo sapiens, single dose 10 µM, '-' = no inhibition, read-out: % Growth Inhibition. In short, it runs like this:
as §1
On to `CCCSc1nc(-c2ccc(OC)cc2)cc(-c2cccc(OC)c2)n1` [Compound 18, 6-(3-Methoxyphenyl)-4-(4-methoxyphenyl)-2-(propylthio)pyrimidine], for which the inhibition at 10 µM is less than 0%.

For a further assay, the system named is SF-539. As to the kind of experiment: NCI-60 single-dose screen. The assay is classed as cell-based. Conditions: Homo sapiens, single dose 10 µM, '-' = no inhibition, read-out: % Growth Inhibition. The procedure, abridged: as §1
Regarding `CCCSc1nc(-c2ccc(OC)cc2)cc(-c2cccc(OC)c2)n1` [Compound 18, 6-(3-Methoxyphenyl)-4-(4-methoxyphenyl)-2-(propylthio)pyrimidine], the inhibition at 10 µM is less than 0%.

Another assay relates to SK-MEL-28. As to the kind of experiment: NCI-60 single-dose screen. The format is cell-based. The settings on record: Homo sapiens, single dose 10 µM, '-' = no inhibition, read-out: % Growth Inhibition. The procedure, abridged:
as §1
For the compound `CCCSc1nc(-c2ccc(OC)cc2)cc(-c2cccc(OC)c2)n1` [Compound 18, 6-(3-Methoxyphenyl)-4-(4-methoxyphenyl)-2-(propylthio)pyrimidine], the inhibition at 10 µM is less than 0%.

In another assay the test system is SK-MEL-2. Put plainly: NCI-60 single-dose screen. The assay is classed as cell-based. The settings on record: Homo sapiens, single dose 10 µM, '-' = no inhibition, read-out: % Growth Inhibition. In short, it runs like this:
as §1
Consider `CCCSc1nc(-c2ccc(OC)cc2)cc(-c2cccc(OC)c2)n1` [Compound 18, 6-(3-Methoxyphenyl)-4-(4-methoxyphenyl)-2-(propylthio)pyrimidine], for which the inhibition at 10 µM came to 3.6%.

A further assay relates to SK-MEL-5. As to the kind of experiment: NCI-60 single-dose screen. The format is cell-based. The settings on record: Homo sapiens, single dose 10 µM, '-' = no inhibition, read-out: % Growth Inhibition. In short, it runs like this: as §1
On to `CCCSc1nc(-c2ccc(OC)cc2)cc(-c2cccc(OC)c2)n1` [Compound 18, 6-(3-Methoxyphenyl)-4-(4-methoxyphenyl)-2-(propylthio)pyrimidine], for which the inhibition at 10 µM was 3.1%.

The next assay has as its system SK-OV-3. As to the kind of experiment: NCI-60 single-dose screen. The format is cell-based. The settings on record: Homo sapiens, single dose 10 µM, '-' = no inhibition, read-out: % Growth Inhibition. In short, it runs like this: as §1
As for `CCCSc1nc(-c2ccc(OC)cc2)cc(-c2cccc(OC)c2)n1` [Compound 18, 6-(3-Methoxyphenyl)-4-(4-methoxyphenyl)-2-(propylthio)pyrimidine], the inhibition at 10 µM was less than 0%.

For another assay, the system named is SNB-19. Put plainly: NCI-60 single-dose screen. The settings on record: Homo sapiens, single dose 10 µM, '-' = no inhibition, read-out: % Growth Inhibition. The assay is classed as cell-based. The procedure, abridged:
as §1
For the compound `CCCSc1nc(-c2ccc(OC)cc2)cc(-c2cccc(OC)c2)n1` [Compound 18, 6-(3-Methoxyphenyl)-4-(4-methoxyphenyl)-2-(propylthio)pyrimidine], the inhibition at 10 µM was less than 0%.

For a further assay, the system named is SNB-75. As to the kind of experiment: NCI-60 single-dose screen. The assay is classed as cell-based. The settings on record: Homo sapiens, single dose 10 µM, '-' = no inhibition, read-out: % Growth Inhibition. The procedure, abridged:
as §1
With `CCCSc1nc(-c2ccc(OC)cc2)cc(-c2cccc(OC)c2)n1` [Compound 18, 6-(3-Methoxyphenyl)-4-(4-methoxyphenyl)-2-(propylthio)pyrimidine], the inhibition at 10 µM is less than 0%.

A further assay deals with SR. As to the kind of experiment: NCI-60 single-dose screen. The assay is classed as cell-based. The settings on record: Homo sapiens, single dose 10 µM, '-' = no inhibition, read-out: % Growth Inhibition. The procedure, abridged: as §1
`CCCSc1nc(-c2ccc(OC)cc2)cc(-c2cccc(OC)c2)n1` [Compound 18, 6-(3-Methoxyphenyl)-4-(4-methoxyphenyl)-2-(propylthio)pyrimidine]: the inhibition at 10 µM is 14.9%.

The test system of a further assay is T-47D. Put plainly: NCI-60 single-dose screen. The format is cell-based. Conditions: Homo sapiens, T47D, single dose 10 µM, '-' = no inhibition, read-out: % Growth Inhibition. The procedure, abridged: as §1
For `CCCSc1nc(-c2ccc(OC)cc2)cc(-c2cccc(OC)c2)n1` [Compound 18, 6-(3-Methoxyphenyl)-4-(4-methoxyphenyl)-2-(propylthio)pyrimidine], the inhibition at 10 µM is 13.8%.

For another assay, the system named is TK-10. Put plainly: NCI-60 single-dose screen. The assay is classed as cell-based. The settings on record: Homo sapiens, single dose 10 µM, '-' = no inhibition, read-out: % Growth Inhibition. In short, it runs like this:
as §1
On to `CCCSc1nc(-c2ccc(OC)cc2)cc(-c2cccc(OC)c2)n1` [Compound 18, 6-(3-Methoxyphenyl)-4-(4-methoxyphenyl)-2-(propylthio)pyrimidine], for which the inhibition at 10 µM is less than 0%.

The subject of the next assay is U251. Put plainly: NCI-60 single-dose screen. The format is cell-based. Conditions: Homo sapiens, U-251, single dose 10 µM, '-' = no inhibition, read-out: % Growth Inhibition. In short, it runs like this:
as §1
`CCCSc1nc(-c2ccc(OC)cc2)cc(-c2cccc(OC)c2)n1` [Compound 18, 6-(3-Methoxyphenyl)-4-(4-methoxyphenyl)-2-(propylthio)pyrimidine]: the inhibition at 10 µM was less than 0%.

In a further assay the test system is UACC-257. As to the kind of experiment: NCI-60 single-dose screen. The assay is classed as cell-based. Conditions: Homo sapiens, single dose 10 µM, '-' = no inhibition, read-out: % Growth Inhibition. The procedure, abridged: as §1
Take `CCCSc1nc(-c2ccc(OC)cc2)cc(-c2cccc(OC)c2)n1` [Compound 18, 6-(3-Methoxyphenyl)-4-(4-methoxyphenyl)-2-(propylthio)pyrimidine]: the inhibition at 10 µM was less than 0%.

The next assay deals with UACC-62. Put plainly: NCI-60 single-dose screen. The assay is classed as cell-based. Conditions: Homo sapiens, single dose 10 µM, '-' = no inhibition, read-out: % Growth Inhibition. In short, it runs like this:
as §1
With `CCCSc1nc(-c2ccc(OC)cc2)cc(-c2cccc(OC)c2)n1` [Compound 18, 6-(3-Methoxyphenyl)-4-(4-methoxyphenyl)-2-(propylthio)pyrimidine], the inhibition at 10 µM is less than 0%.

Another assay deals with UO-31. As to the kind of experiment: NCI-60 single-dose screen. The format is cell-based. Conditions: Homo sapiens, single dose 10 µM, '-' = no inhibition, read-out: % Growth Inhibition. The procedure, abridged: as §1
Turning to `CCCSc1nc(-c2ccc(OC)cc2)cc(-c2cccc(OC)c2)n1` [Compound 18, 6-(3-Methoxyphenyl)-4-(4-methoxyphenyl)-2-(propylthio)pyrimidine], the inhibition at 10 µM is less than 0%.
